# Results published in US20260356819A1, “OXOISOINDOLINYL-SUBSTITUTED […] DERIVATIVE AND USE THEREOF” (GLUETACS THERAPEUTICS (SHANGHAI) CO., LTD., priority 2023, published 2026).
# pIC50: −log10 of the molar value.
# Assays:
# GSPT1 = molecular target: T1, GSPT1 (Homo sapiens, UniProt P15170+Q96SW2); assay: Western blot degradation of GSPT1 in hPBMCs (24 h); format: cell-based; details: compounds at 50 nM and 500 nM
# T1 construct: The supernatant was aspirated as the extracted total cell protein; endogenous in cells; host or cells: human peripheral blood mononuclear cells (hPBMCs)
# Method in brief: (§1)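 hPBMCs (1×10^6 cells/mL) exposed to compound at 50 nM and 500 nM for 24 h, DMSO as reference. Lysates run on SDS-PAGE and immunoblotted. Band grayscale normalized to internal control gives % protein remaining; DC50 from fitted concentration-response of band intensity versus DMSO.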
# IKZF2 = molecular target: T2, IKZF2 (Homo sapiens, UniProt Q96SW2+Q9UKS7); assay: Western blot degradation of IKZF2 in hPBMCs (24 h); format: cell-based; details: compounds at 50 nM and 500 nM
# T2 construct: The supernatant was aspirated as the extracted total cell protein; endogenous in cells; host or cells: human peripheral blood mononuclear cells (hPBMCs)
# Method in brief: as §1
# IKZF1 = molecular target: T3, IKZF1 (Homo sapiens, UniProt Q13422+Q96SW2); assay: Western blot degradation of IKZF1 in hPBMCs (24 h); format: cell-based; details: compounds at 50 nM and 500 nM
# T3 construct: The supernatant was aspirated as the extracted total cell protein; endogenous in cells; host or cells: human peripheral blood mononuclear cells (hPBMCs)
# Method in brief: as §1
# MV-4-11 cells = assay: Inhibition of proliferation of myeloid monocytic leukemia cells MV-4-11 (cell viability assay, 96 h); format: cell-based, human; details: read-out: inhibitory activity (IC50) against tumor cells proliferation, MV-4-11
# Experimental: The tumor cells used herein were cultured in a cell culture medium listed in table 2 at 37 °C in an incubator with 5% CO2. Prior to experimentation, all cell lines used were correctly identified by STR profiling, and tested negative for Mycoplasma contamination using a Mycoplasma detection kit through routine screenings.
# The IC50 values of the compounds of the present disclosure (including the compounds in Table 1, and Examples 1-498) were determined using the CellTiter-Meiluncell Luminescent Cell Viability Assay Kit from Dalian Meilun Biotech Co., Ltd. The detailed procedure is as follows: Tumor cells were seeded in 96-well cell culture plates at the densities specified in Table 3. On the following day, the test compounds of the present disclosure were subjected to serial dilution. […] Subsequently, 0.5 μL of the test compound dilution was transferred into the 96-well plate containing the cells, with each well containing 100 μL of cell culture medium. […] Into the 96-well plate, the diluted test compounds and corresponding detection reagents were added, resulting in final test compound concentrations of 500 nM and 10 nM, respectively. The experimental procedure is described below using the diluted 2 μM test compound as an example.
# 0.5 μL of the aforementioned diluted compound of the present disclosure (including the compounds in Table 1, and Examples 1-498) was added to the seeded cells in 100 μL of medium, yielding a final test compound concentration of 10 nM. After the cells were treated with the compounds of the present disclosure for a specified period, the cell viability assay reagent was added to the culture medium according to the kit's instructions to determine cell viability. […] All controls were treated using the same procedure as the compounds of the present disclosure. The growth inhibition curves for the compounds of the present disclosure were plotted using Prism GraphPad software, and the IC50 values were calculated therefrom.
# WEE1 = molecular target: T4, WEE1 (Homo sapiens, UniProt P30291+Q96SW2); assay: Western blot degradation of WEE1 in hPBMCs (24 h); format: cell-based; details: compounds at 50 nM and 500 nM
# T4 construct: The supernatant was aspirated as the extracted total cell protein; endogenous in cells; host or cells: human peripheral blood mononuclear cells (hPBMCs)
# Method in brief: as §1
# CK1α = molecular target: T5, CK1α (Homo sapiens, UniProt P48729+Q96SW2); assay: Western blot degradation of CK1α in hPBMCs (24 h); format: cell-based; details: compounds at 50 nM and 500 nM
# T5 construct: The supernatant was aspirated as the extracted total cell protein; endogenous in cells; host or cells: human peripheral blood mononuclear cells (hPBMCs)
# Method in brief: as §1
# IKZF3 = molecular target: T6, IKZF3 (Homo sapiens, UniProt Q96SW2+Q9UKT9); assay: Western blot degradation of IKZF3 in hPBMCs (24 h); format: cell-based; details: compounds at 50 nM and 500 nM
# T6 construct: The supernatant was aspirated as the extracted total cell protein; endogenous in cells; host or cells: human peripheral blood mononuclear cells (hPBMCs)
# Method in brief: as §1
# T3 sequence (Q13422 whole entry): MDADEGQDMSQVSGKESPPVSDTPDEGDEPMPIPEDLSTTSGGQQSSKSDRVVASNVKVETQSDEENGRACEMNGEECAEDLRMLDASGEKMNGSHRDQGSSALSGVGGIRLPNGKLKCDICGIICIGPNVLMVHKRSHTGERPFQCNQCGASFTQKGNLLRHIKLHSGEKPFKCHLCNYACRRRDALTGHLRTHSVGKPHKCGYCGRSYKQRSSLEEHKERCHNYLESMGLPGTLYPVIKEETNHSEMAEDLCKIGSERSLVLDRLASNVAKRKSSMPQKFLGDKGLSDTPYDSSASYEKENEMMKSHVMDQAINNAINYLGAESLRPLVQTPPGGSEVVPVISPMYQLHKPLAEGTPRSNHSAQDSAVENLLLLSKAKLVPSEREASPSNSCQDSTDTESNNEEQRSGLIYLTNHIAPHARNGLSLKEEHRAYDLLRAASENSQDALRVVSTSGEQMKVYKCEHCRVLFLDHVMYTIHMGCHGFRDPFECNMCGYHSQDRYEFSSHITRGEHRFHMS
# T3 sequence (Q96SW2 whole entry): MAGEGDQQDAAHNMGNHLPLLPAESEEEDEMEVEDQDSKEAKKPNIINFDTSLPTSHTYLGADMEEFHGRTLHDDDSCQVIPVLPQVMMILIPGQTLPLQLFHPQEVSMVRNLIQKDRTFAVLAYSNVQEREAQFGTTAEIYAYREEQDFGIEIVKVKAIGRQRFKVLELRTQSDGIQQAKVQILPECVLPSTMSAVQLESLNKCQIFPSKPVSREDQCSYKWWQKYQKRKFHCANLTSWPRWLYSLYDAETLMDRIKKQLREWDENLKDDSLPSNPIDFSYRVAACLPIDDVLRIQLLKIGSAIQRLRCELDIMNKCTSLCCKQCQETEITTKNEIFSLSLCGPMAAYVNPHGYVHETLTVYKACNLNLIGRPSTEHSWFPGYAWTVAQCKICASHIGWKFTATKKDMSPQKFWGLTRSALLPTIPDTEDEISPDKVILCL
# T3 sequence (Q16531 whole entry partner): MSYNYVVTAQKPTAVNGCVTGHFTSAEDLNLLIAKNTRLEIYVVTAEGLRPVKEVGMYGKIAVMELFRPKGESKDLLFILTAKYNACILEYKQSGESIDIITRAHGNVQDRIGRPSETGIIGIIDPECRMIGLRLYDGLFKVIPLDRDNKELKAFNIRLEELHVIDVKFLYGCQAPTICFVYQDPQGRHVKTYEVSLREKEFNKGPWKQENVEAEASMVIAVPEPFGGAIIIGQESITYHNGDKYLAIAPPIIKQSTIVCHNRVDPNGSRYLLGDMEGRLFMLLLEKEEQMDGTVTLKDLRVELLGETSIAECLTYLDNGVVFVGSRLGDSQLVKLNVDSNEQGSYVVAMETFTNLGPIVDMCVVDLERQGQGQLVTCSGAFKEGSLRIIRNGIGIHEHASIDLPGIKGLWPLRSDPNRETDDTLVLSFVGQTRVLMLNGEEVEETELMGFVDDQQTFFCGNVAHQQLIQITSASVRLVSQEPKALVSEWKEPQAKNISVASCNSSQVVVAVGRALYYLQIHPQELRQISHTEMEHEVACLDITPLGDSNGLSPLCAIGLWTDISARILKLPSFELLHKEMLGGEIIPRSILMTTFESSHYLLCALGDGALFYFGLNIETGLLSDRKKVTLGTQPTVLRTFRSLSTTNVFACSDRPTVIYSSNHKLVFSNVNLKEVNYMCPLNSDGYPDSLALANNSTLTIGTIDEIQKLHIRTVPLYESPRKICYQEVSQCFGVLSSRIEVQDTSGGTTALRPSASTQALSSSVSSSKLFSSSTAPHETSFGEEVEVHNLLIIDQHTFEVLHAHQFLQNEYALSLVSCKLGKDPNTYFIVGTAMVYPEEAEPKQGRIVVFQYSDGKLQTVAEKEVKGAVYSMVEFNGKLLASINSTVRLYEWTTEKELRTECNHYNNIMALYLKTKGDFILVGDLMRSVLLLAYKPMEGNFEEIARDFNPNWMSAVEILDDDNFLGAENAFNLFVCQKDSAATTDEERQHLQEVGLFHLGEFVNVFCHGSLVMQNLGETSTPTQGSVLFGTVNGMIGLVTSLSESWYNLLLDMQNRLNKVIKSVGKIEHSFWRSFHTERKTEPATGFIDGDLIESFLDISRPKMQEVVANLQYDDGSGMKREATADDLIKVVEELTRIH
# T5 sequence (P48729 whole entry): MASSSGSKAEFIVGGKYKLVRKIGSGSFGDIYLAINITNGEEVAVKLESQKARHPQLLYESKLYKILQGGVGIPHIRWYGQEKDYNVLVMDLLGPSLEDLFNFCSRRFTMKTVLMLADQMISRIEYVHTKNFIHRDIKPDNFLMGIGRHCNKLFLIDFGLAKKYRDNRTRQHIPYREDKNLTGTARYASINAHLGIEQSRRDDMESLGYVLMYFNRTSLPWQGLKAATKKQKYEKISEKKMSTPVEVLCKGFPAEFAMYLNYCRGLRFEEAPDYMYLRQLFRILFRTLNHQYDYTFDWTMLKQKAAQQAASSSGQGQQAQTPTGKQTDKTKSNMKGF
# T5 sequence (Q96SW2 whole entry): as the sequence (Q96SW2 whole entry) above
# T5 sequence (Q16531 whole entry partner): as the sequence (Q16531 whole entry partner) above
# T2 sequence (Q9UKS7 whole entry): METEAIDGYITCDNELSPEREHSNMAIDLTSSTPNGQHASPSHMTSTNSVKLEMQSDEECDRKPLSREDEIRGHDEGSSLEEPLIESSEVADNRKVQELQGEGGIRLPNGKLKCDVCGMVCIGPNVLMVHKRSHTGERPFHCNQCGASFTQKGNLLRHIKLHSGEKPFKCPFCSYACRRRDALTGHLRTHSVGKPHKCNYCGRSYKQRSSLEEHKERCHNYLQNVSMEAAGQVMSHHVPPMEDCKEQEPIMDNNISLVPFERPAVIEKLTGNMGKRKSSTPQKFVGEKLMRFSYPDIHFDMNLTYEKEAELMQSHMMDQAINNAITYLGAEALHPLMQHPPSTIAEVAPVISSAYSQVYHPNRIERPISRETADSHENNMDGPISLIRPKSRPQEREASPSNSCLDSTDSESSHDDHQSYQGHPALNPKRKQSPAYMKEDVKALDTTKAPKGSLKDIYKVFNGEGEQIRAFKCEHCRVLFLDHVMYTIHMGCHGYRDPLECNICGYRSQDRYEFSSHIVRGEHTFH
# T2 sequence (Q96SW2 whole entry): as the sequence (Q96SW2 whole entry) above
# T2 sequence (Q16531 whole entry partner): as the sequence (Q16531 whole entry partner) above
# T1 sequence (P15170 whole entry): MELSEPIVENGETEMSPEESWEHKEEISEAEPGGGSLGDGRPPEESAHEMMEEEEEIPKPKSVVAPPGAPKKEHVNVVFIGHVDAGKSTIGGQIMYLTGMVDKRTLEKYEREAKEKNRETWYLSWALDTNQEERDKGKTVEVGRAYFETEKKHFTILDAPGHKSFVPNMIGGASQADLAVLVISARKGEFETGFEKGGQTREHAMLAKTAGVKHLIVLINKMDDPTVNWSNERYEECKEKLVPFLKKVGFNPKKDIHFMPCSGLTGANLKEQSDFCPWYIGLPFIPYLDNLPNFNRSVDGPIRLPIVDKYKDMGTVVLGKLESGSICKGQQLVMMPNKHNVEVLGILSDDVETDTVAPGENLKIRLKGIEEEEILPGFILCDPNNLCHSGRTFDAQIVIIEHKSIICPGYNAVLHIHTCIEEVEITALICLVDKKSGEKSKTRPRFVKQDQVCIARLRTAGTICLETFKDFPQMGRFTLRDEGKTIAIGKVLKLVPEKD
# T1 sequence (Q96SW2 whole entry): as the sequence (Q96SW2 whole entry) above
# T1 sequence (Q16531 whole entry partner): as the sequence (Q16531 whole entry partner) above
# T4 sequence (P30291 whole entry): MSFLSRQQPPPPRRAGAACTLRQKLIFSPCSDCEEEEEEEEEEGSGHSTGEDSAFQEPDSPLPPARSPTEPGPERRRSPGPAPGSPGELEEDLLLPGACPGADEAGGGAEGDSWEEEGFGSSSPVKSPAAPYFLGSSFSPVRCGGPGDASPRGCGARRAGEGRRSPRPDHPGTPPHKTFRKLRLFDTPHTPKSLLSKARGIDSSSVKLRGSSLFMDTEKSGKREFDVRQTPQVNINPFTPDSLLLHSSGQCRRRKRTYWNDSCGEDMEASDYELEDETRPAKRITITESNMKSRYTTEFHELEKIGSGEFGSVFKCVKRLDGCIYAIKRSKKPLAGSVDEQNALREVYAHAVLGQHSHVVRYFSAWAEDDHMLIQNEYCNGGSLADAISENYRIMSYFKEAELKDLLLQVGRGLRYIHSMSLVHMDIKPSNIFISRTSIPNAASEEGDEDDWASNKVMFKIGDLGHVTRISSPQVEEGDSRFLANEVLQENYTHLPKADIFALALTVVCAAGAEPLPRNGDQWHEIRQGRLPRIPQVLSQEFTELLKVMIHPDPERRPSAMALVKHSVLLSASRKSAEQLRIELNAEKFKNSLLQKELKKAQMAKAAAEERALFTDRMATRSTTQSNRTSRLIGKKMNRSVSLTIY
# T4 sequence (Q96SW2 whole entry): as the sequence (Q96SW2 whole entry) above
# T4 sequence (Q16531 whole entry partner): as the sequence (Q16531 whole entry partner) above
SMILES,GSPT1 substrate protein remaining % (GSPT1),IKZF2 substrate protein remaining % (IKZF2),IKZF1 substrate protein remaining % (IKZF1),pIC50 (MV-4-11 cells),WEE1 substrate protein remaining % (WEE1),CK1α substrate protein remaining % (CK1α),IKZF3 substrate protein remaining % (IKZF3)
"O=C1CCN(N2Cc3cc(CN4CCN(c5ccccc5)CC4)ccc3C2=O)C(=O)N1 [GT-06696, 1-(1-oxo-5-((4-phenylpiperazin-1-yl)methyl)isoindolin-2-yl)dihydropyrimidine-2,4(1H,3H)-dione]",A (0% ≤ substrate protein remaining % ≤80%),B (80%< substrate protein remaining % ≤100%),B (80%< substrate protein remaining % ≤100%),6.52 to 7.00,B (80%< substrate protein remaining % ≤100%),B (80%< substrate protein remaining % ≤100%),B (80%< substrate protein remaining % ≤100%)
"O=C1CCN(N2Cc3cc(CN4CCN(c5cccc(Br)c5)CC4)ccc3C2=O)C(=O)N1 [GT-06698, 1-(5-((4-(3-bromophenyl)piperazin-1-yl)methyl)-1-oxoisoindolin-2-yl)dihydropyrimidine-2,4(1H,3H)-dione]",A (0% ≤ substrate protein remaining % ≤80%),B (80%< substrate protein remaining % ≤100%),B (80%< substrate protein remaining % ≤100%),6.52 to 7.00,B (80%< substrate protein remaining % ≤100%),B (80%< substrate protein remaining % ≤100%),B (80%< substrate protein remaining % ≤100%)
"COc1cccc(N2CCN(Cc3ccc4c(c3)CN(N3CCC(=O)NC3=O)C4=O)CC2)c1 [GT-06699, 1-(5-((4-(3-methoxyphenyl)piperazin-1-yl)methyl)-1-oxoisoindolin-2-yl)dihydropyrimidine-2,4(1H,3H)-dione]",A (0% ≤ substrate protein remaining % ≤80%),B (80%< substrate protein remaining % ≤100%),B (80%< substrate protein remaining % ≤100%),6.52 to 7.00,B (80%< substrate protein remaining % ≤100%),B (80%< substrate protein remaining % ≤100%),B (80%< substrate protein remaining % ≤100%)
"O=C1CCN(N2Cc3cc(CN4CCN(c5ccc(F)cc5)CC4)ccc3C2=O)C(=O)N1 [GT-06702, 1-(5-((4-(4-fluorophenyl)piperazin-1-yl)methyl)-1-oxoisoindolin-2-yl)dihydropyrimidine-2,4(1H,3H)-dione]",A (0% ≤ substrate protein remaining % ≤80%),B (80%< substrate protein remaining % ≤100%),B (80%< substrate protein remaining % ≤100%),6.00 to 6.30,B (80%< substrate protein remaining % ≤100%),A (0% ≤ substrate protein remaining % ≤80%),B (80%< substrate protein remaining % ≤100%)
"O=C1CCN(N2Cc3cc(CN4CCN(c5ccccc5Cl)CC4)ccc3C2=O)C(=O)N1 [GT-06703, 1-(5-((4-(2-chlorophenyl)piperazin-1-yl)methyl)-1-oxoisoindolin-2-yl)dihydropyrimidine-2,4(1H,3H)-dione]",A (0% ≤ substrate protein remaining % ≤80%),B (80%< substrate protein remaining % ≤100%),B (80%< substrate protein remaining % ≤100%),6.00 to 6.30,B (80%< substrate protein remaining % ≤100%),A (0% ≤ substrate protein remaining % ≤80%),B (80%< substrate protein remaining % ≤100%)
"O=C1CCN(N2Cc3cc(CN4CCN(c5ccc(Cl)cc5)CC4)ccc3C2=O)C(=O)N1 [GT-06765, 1-(5-((4-(4-chlorophenyl)piperazin-1-yl)methyl)-1-oxoisoindolin-2-yl)dihydropyrimidine-2,4(1H,3H)-dione]",B (80%< substrate protein remaining % ≤100%),B (80%< substrate protein remaining % ≤100%),B (80%< substrate protein remaining % ≤100%),6.00 to 6.30,B (80%< substrate protein remaining % ≤100%),A (0% ≤ substrate protein remaining % ≤80%),B (80%< substrate protein remaining % ≤100%)
"O=C1CCN(N2Cc3cc(CN4CCN(c5ccccc5Br)CC4)ccc3C2=O)C(=O)N1 [GT-06766, 1-(5-((4-(2-bromophenyl)piperazin-1-yl)methyl)-1-oxoisoindolin-2-yl)dihydropyrimidine-2,4(1H,3H)-dione]",A (0% ≤ substrate protein remaining % ≤80%),A (0% ≤ substrate protein remaining % ≤80%),A (0% ≤ substrate protein remaining % ≤80%),6.00 to 6.30,A (0% ≤ substrate protein remaining % ≤80%),A (0% ≤ substrate protein remaining % ≤80%),A (0% ≤ substrate protein remaining % ≤80%)
"O=C1CCN(N2Cc3cc(CN4CCN(c5cc(Cl)ccc5Cl)CC4)ccc3C2=O)C(=O)N1 [GT-06773, 1-(5-((4-(2,5-dichlorophenyl)piperazin-1-yl)methyl)-1-oxoisoindolin-2-yl)dihydropyrimidine-2,4(1H,3H)-dione]",A (0% ≤ substrate protein remaining % ≤80%),A (0% ≤ substrate protein remaining % ≤80%),B (80%< substrate protein remaining % ≤100%),6.52 to 7.00,A (0% ≤ substrate protein remaining % ≤80%),A (0% ≤ substrate protein remaining % ≤80%),A (0% ≤ substrate protein remaining % ≤80%)
"O=C1CCN(N2Cc3cc(CN4CCN(c5cccc(F)c5F)CC4)ccc3C2=O)C(=O)N1 [GT-06777, 1-(5-((4-(2,3-difluorophenyl)piperazin-1-yl)methyl)-1-oxoisoindolin-2-yl)dihydropyrimidine-2,4(1H,3H)-dione]",A (0% ≤ substrate protein remaining % ≤80%),A (0% ≤ substrate protein remaining % ≤80%),B (80%< substrate protein remaining % ≤100%),6.30 to 6.52,A (0% ≤ substrate protein remaining % ≤80%),A (0% ≤ substrate protein remaining % ≤80%),B (80%< substrate protein remaining % ≤100%)
"O=C1CCN(N2Cc3cc(CN4CCC(c5ccccc5)CC4)ccc3C2=O)C(=O)N1 [GT-06884, 1-(1-oxo-5-((4-phenylpiperidin-1-yl)methyl)isoindolin-2-yl)dihydropyrimidine-2,4(1H,3H)-dione]",A (0% ≤ substrate protein remaining % ≤80%),B (80%< substrate protein remaining % ≤100%),B (80%< substrate protein remaining % ≤100%),6.00 to 6.30,B (80%< substrate protein remaining % ≤100%),B (80%< substrate protein remaining % ≤100%),B (80%< substrate protein remaining % ≤100%)
